Experimental findings from ChEMBL document CHEMBL1158401, “Development of CoMFA and CoMSIA models of affinity and selectivity for indole ligands of cannabinoid CB1 and CB2 receptors” (Eur J Med Chem, 2009) are described below.

One experiment addresses Cannabinoid receptor 2 (Homo sapiens, UniProt P34972). Description: Displacement of [3H]CP-55940 from human cloned CB2 receptor by filtration assay. (In general: Loss of bound radioactivity is the signal in a displacement assay; it reports binding, not function.)
A short description of experiment [1]: Selectivity ratio of pKi for CB1 receptor in rat brain to pKi for human cloned CB2 receptor. In kind it is tissue-based.
Experiment [2] is described as follows: Selectivity ratio of pKi for human cloned CB2 receptor to pKi for CB1 receptor in rat brain. The class given is tissue-based.
Another experiment addresses Cannabinoid receptor 1 (Rattus norvegicus, UniProt P20272). Description: Displacement of [3H]CP-55940 from CB1 receptor in rat brain by filtration assay. In kind it is tissue-based.

Cannabinoid receptor 2, sequence (P34972 whole entry): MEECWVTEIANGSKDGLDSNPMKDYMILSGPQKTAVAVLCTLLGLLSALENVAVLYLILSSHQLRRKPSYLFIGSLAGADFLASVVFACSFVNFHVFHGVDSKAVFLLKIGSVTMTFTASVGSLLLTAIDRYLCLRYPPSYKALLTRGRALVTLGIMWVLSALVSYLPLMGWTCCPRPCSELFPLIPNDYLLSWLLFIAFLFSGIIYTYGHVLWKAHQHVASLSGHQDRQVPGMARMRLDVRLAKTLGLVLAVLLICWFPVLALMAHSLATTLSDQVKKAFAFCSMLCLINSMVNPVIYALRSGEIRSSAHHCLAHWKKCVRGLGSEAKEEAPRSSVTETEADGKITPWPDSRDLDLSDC
Cannabinoid receptor 1, sequence (P20272 whole entry): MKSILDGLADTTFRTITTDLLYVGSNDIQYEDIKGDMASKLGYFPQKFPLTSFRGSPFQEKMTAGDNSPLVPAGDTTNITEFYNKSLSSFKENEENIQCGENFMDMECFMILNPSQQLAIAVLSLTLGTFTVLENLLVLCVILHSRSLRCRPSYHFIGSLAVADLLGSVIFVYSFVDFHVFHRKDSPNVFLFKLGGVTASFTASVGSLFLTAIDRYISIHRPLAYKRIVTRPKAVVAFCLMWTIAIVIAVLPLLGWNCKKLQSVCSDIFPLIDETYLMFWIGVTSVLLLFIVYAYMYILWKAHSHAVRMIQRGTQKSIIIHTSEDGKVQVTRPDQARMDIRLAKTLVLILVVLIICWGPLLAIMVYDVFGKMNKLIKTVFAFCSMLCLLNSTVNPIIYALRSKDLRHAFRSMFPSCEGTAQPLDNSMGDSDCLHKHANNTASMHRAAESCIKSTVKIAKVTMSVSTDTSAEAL

What is called Ki is the dissociation constant of the complex between target and ligand, obtained from inhibition or displacement. Turning to `CCCCCn1c(C)c(C(=O)c2cccc3ccccc23)c2ccccc21`, the inhibitory constant (Ki) is 2.9 nM on Cannabinoid receptor 2 and 9.51 nM on Cannabinoid receptor 1. Also, the values for the Ratio pKi in experiment [1] and in experiment [2] were 0.94 and 1.06, respectively.

For the compound `CCCCCn1cc(C(=O)c2cccc3ccccc23)c2ccccc21`, the inhibitory constant (Ki) on Cannabinoid receptor 2 is 2.9 nM; at Cannabinoid receptor 1 it was 9.02 nM. Also, the Ratio pKi in experiment [1] came out at 0.942; in experiment [2], 1.06.

As for `CCCn1c(C)c(C(=O)c2cccc3ccc(C)cc23)c2ccccc21`, the Ki is 16 nM on Cannabinoid receptor 2 and 344 nM at Cannabinoid receptor 1. Besides, the Ratio pKi in experiment [1] worked out at 0.829; in experiment [2], 1.21.
